# Where “and” joins values, the source holds several entries; their conditions need not be identical. Equal values may be shown once. Toxic doses and inconclusive results are not listed.
# Tested on: L1210 leukemia ip in BDF1 mice, survival T/C
# Test: NCI In Vivo Anticancer Drug Screen. Data for tumor model L1210 Leukemia (intraperitoneal) in B6D2F1 (BDF1) mice
# Conditions: endpoint: mean survival time, higher = longer survival
# Procedure, shortened: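 Survival endpoint. Drug-treated group vs vehicle group, expressed as T divided by C. Tumor passaged by transplantation.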
# [1] = dose: 100.0 mg/kg/injection, schedule: Q04DX003 (ip), vehicle: Klucel (hydroxypropylcellulose) (HPC)
# [2] = dose: 200.0 mg/kg/injection, schedule: Q04DX003 (ip), vehicle: Klucel (hydroxypropylcellulose) (HPC)
# [3] = dose: 400.0 mg/kg/injection, schedule: Q04DX003 (ip), vehicle: Klucel (hydroxypropylcellulose) (HPC)
# [4] = dose: 50.0 mg/kg/injection, schedule: Q01DX001 (ip), vehicle: saline
# [5] = dose: 100.0 mg/kg/injection, schedule: Q01DX001 (ip), vehicle: saline
# [6] = dose: 200.0 mg/kg/injection, schedule: Q01DX001 (ip), vehicle: saline
# [7] = dose: 400.0 mg/kg/injection, schedule: Q01DX001 (ip), vehicle: saline
# [8] = dose: 100.0 mg/kg/injection, schedule: Q01DX009 (ip), vehicle: saline with Tween-80
# [9] = dose: 200.0 mg/kg/injection, schedule: Q01DX009 (ip), vehicle: saline with Tween-80
# [10] = dose: 400.0 mg/kg/injection, schedule: Q01DX009 (ip), vehicle: saline with Tween-80
# [11] = dose: 100.0 mg/kg/injection, schedule: Q01DX009 (ip), vehicle: Klucel (hydroxypropylcellulose) (HPC)
# [12] = dose: 200.0 mg/kg/injection, schedule: Q01DX009 (ip), vehicle: Klucel (hydroxypropylcellulose) (HPC)
# [13] = dose: 400.0 mg/kg/injection, schedule: Q01DX009 (ip), vehicle: Klucel (hydroxypropylcellulose) (HPC)
# [14] = dose: 25.0 mg/kg/injection, schedule: Q04DX002 (ip), vehicle: Klucel (hydroxypropylcellulose) (HPC)
# [15] = dose: 50.0 mg/kg/injection, schedule: Q04DX002 (ip), vehicle: Klucel (hydroxypropylcellulose) (HPC)
# [16] = dose: 100.0 mg/kg/injection, schedule: Q04DX003 (ip), vehicle: saline with Tween-80
# [17] = dose: 200.0 mg/kg/injection, schedule: Q04DX003 (ip), vehicle: saline with Tween-80
# [18] = dose: 400.0 mg/kg/injection, schedule: Q04DX003 (ip), vehicle: saline with Tween-80
# [19] = dose: 100.0 mg/kg/injection, schedule: Q01DX001 (ip), vehicle: Klucel (hydroxypropylcellulose) (HPC)
compound,measurement,setting,value
CC(C)=CCC/C(C)=C/CN1C(=O)CCCC1=O,T/C,"dose: 100.0 mg/kg/injection, schedule: Q01DX001 (ip), vehicle: saline with Tween-80",104 % of control
same,T/C,"dose: 150.0 mg/kg/injection, schedule: Q04DX003 (ip), vehicle: saline with Tween-80",94 % of control
same,T/C,"dose: 200.0 mg/kg/injection, schedule: Q01DX001 (ip), vehicle: saline with Tween-80",97 % of control
same,T/C,"dose: 300.0 mg/kg/injection, schedule: Q04DX003 (ip), vehicle: saline with Tween-80",94 % of control
same,T/C,"dose: 400.0 mg/kg/injection, schedule: Q01DX001 (ip), vehicle: saline with Tween-80",93 % of control
same,T/C,"dose: 600.0 mg/kg/injection, schedule: Q04DX003 (ip), vehicle: saline with Tween-80",90 % of control
CCCCCCCCCCCCSC1=NS(=O)(=O)c2ccccc21,T/C,[1],106 % of control
same,T/C,[2],94 % of control
same,T/C,[3],90 % of control
Cc1ccc(C2(C)CCC(=O)c3cc(C)c(C)cc32)cc1C (configuration not stated),T/C,[4],97 % of control
same,T/C,[5],100 % of control
same,T/C,[6],94 % of control
same,T/C,[7],103 % of control
CCCOC(=O)Nc1cccc(O)c1,T/C,[8],92 % of control
same,T/C,[9],94 % of control
same,T/C,[10],88 % of control
CS(=O)(=O)OCC1CCC(COS(C)(=O)=O)CC1 (configuration not stated),T/C,[1],103 % of control
same,T/C,[2],100 % of control
same,T/C,[3],102 % of control
COc1c(C)cccc1[N+](=O)[O-],T/C,[11],104 % of control
same,T/C,[1],98 % of control
same,T/C,[12],101 % of control
same,T/C,[2],104 % of control
same,T/C,[13],101 % of control
same,T/C,[3],101 % of control
CCCCCC(/C=N/NC(=O)c1cccc2ccccc12)=C\c1ccccc1,T/C,[5],94 % of control
same,T/C,[7],97 % of control
O=C(Nc1ccc(S(=O)(=O)F)cc1)/C(=C/c1cccc([N+](=O)[O-])c1)c1ccccc1,T/C,[11],106 % of control
same,T/C,[12],94 % of control
same,T/C,[13],100 % of control
NS(=O)(=O)c1ccc(NC(=S)NC(=O)c2ccc(Cl)cc2Cl)cc1,T/C,[8],89 % of control and 90 % of control
same,T/C,"dose: 100.0 mg/kg/injection, schedule: Q04DX002 (ip), vehicle: saline with Tween-80",101 % of control and 92 % of control
same,T/C,[9],96 % of control and 89 % of control
same,T/C,"dose: 200.0 mg/kg/injection, schedule: Q04DX002 (ip), vehicle: saline with Tween-80",97 % of control and 90 % of control
same,T/C,[10],93 % of control and 89 % of control
same,T/C,"dose: 400.0 mg/kg/injection, schedule: Q04DX002 (ip), vehicle: saline with Tween-80",86 % of control and 92 % of control
Cc1cnc(C#N)c(C#N)n1,T/C,"dose: 12.5 mg/kg/injection, schedule: Q04DX002 (ip), vehicle: Klucel (hydroxypropylcellulose) (HPC)",100 % of control
same,T/C,[14],96 % of control
same,T/C,[15],96 % of control
CC(=O)Nc1ccc(C=Nc2c(N)n(C)c(=O)n(C)c2=O)cc1,T/C,"dose: 50.0 mg/kg/injection, schedule: Q01DX001 (ip), vehicle: carboxymethylcellulose (CMC)",94 % of control
same,T/C,"dose: 100.0 mg/kg/injection, schedule: Q01DX001 (ip), vehicle: carboxymethylcellulose (CMC)",96 % of control
same,T/C,"dose: 200.0 mg/kg/injection, schedule: Q01DX001 (ip), vehicle: carboxymethylcellulose (CMC)",94 % of control
same,T/C,"dose: 400.0 mg/kg/injection, schedule: Q01DX001 (ip), vehicle: carboxymethylcellulose (CMC)",90 % of control
C=CCN(CC=C)P(=O)(N(CC=C)CC=C)N1CC1,T/C,"dose: 3.0 mg/kg/injection, schedule: Q01DX015 (ip), vehicle: saline",151 % of control
same,T/C,"dose: 5.0 mg/kg/injection, schedule: Q01DX001 (ip), vehicle: saline",117 % of control
same,T/C,"dose: 5.0 mg/kg/injection, schedule: Q01DX015 (ip), vehicle: saline",155 % of control
same,T/C,"dose: 7.0 mg/kg/injection, schedule: Q01DX015 (ip), vehicle: saline",173 % of control
same,T/C,"dose: 10.0 mg/kg/injection, schedule: Q01DX001 (ip), vehicle: saline",117 % of control
same,T/C,"dose: 11.0 mg/kg/injection, schedule: Q01DX015 (ip), vehicle: saline",178 % of control
same,T/C,[5],175 % of control
Cc1cc(C)c(N2C(=O)CC(Sc3ccccc3N)C2=O)c(C)c1 (configuration not stated),T/C,[16],105 % of control
same,T/C,[17],109 % of control
same,T/C,[18],98 % of control
Cc1ccc(S(=O)(=O)N(CCCc2c(Cl)nc(N)nc2Cc2ccccc2)c2ccccc2)cc1,T/C,"dose: 100.0 mg/kg/injection, schedule: Q04DX003 (ip), vehicle: gum acacia",97 % of control
same,T/C,"dose: 200.0 mg/kg/injection, schedule: Q04DX003 (ip), vehicle: gum acacia",92 % of control
same,T/C,"dose: 400.0 mg/kg/injection, schedule: Q04DX003 (ip), vehicle: gum acacia",94 % of control
Cn1cc(/C=C\[N+](=O)[O-])c2ccccc21,T/C,[5],98 % of control
same,T/C,[6],98 % of control
same,T/C,[7],98 % of control
CCCCCCCCN(c1ccc(C#N)cc1)S(=O)(=O)c1ccc(C)cc1,T/C,"dose: 75.0 mg/kg/injection, schedule: Q01DX009 (ip), vehicle: Klucel (hydroxypropylcellulose) (HPC)",92 % of control
same,T/C,"dose: 150.0 mg/kg/injection, schedule: Q01DX009 (ip), vehicle: Klucel (hydroxypropylcellulose) (HPC)",87 % of control
same,T/C,"dose: 300.0 mg/kg/injection, schedule: Q01DX009 (ip), vehicle: Klucel (hydroxypropylcellulose) (HPC)",97 % of control
O=C(O)c1cccc(N2C(=O)C=CC2=O)c1,T/C,[14],101 % of control
same,T/C,[15],101 % of control
O=C(COc1ccc(Cl)cc1)NNc1ccccc1,T/C,"dose: 100.0 mg/kg/injection, schedule: Q04DX002 (ip), vehicle: saline",100 % of control
same,T/C,"dose: 200.0 mg/kg/injection, schedule: Q04DX002 (ip), vehicle: saline",96 % of control
same,T/C,"dose: 400.0 mg/kg/injection, schedule: Q04DX002 (ip), vehicle: saline",114 % of control
COc1cc(OC)c(NC2=CC(c3ccc(Cl)cc3)OC2=O)cc1Cl (configuration not stated),T/C,[19],92 % of control
same,T/C,[1],92 % of control
same,T/C,"dose: 200.0 mg/kg/injection, schedule: Q01DX001 (ip), vehicle: Klucel (hydroxypropylcellulose) (HPC)",94 % of control
same,T/C,[2],95 % of control
same,T/C,"dose: 400.0 mg/kg/injection, schedule: Q01DX001 (ip), vehicle: Klucel (hydroxypropylcellulose) (HPC)",92 % of control
same,T/C,[3],95 % of control
CC(C)(O)C/C=C/c1ccccc1,T/C,[16],103 % of control
same,T/C,[17],103 % of control
same,T/C,[18],106 % of control
CCC(CCl)NC(=O)Nc1cccc2c1CCCC2 (configuration not stated),T/C,[1],98 % of control
same,T/C,[2],96 % of control
same,T/C,[3],98 % of control
Cc1ccc(N=NC2C(=O)c3ccccc3C2=O)cc1,T/C,[4],100 % of control
same,T/C,[5],100 % of control
same,T/C,[6],97 % of control
same,T/C,[7],103 % of control
CC(C)(C)OC(=O)C(C1NC2C(=O)OCC2(CO)S1)N1C(=O)c2ccccc2C1=O (configuration not stated),T/C,[1],95 % of control
same,T/C,[2],92 % of control
same,T/C,[3],101 % of control
CC(C)c1cc(C(C)C)nc(NNc2nc(C(C)C)cc(C(C)C)n2)n1,T/C,[8],102 % of control
same,T/C,[9],100 % of control
same,T/C,[10],98 % of control
CC(C)/C=N\O,T/C,[16],104 % of control
same,T/C,[17],123 % of control
same,T/C,[18],109 % of control
Cc1cc(NC(=O)NCCCl)c2c(c1C)CCCC2,T/C,"dose: 20.0 mg/kg/injection, schedule: Q01DX001 (ip), vehicle: Klucel (hydroxypropylcellulose) (HPC)",100 % of control
same,T/C,"dose: 40.0 mg/kg/injection, schedule: Q01DX001 (ip), vehicle: Klucel (hydroxypropylcellulose) (HPC)",96 % of control
same,T/C,[19],90 % of control
CC1(C)OC2COC(c3[nH]nc4c(=O)[nH]c(=O)[nH]c34)C2O1 (configuration not stated),T/C,"dose: 25.0 mg/kg/injection, schedule: Q01DX009 (ip), vehicle: saline",96 % of control
same,T/C,"dose: 100.0 mg/kg/injection, schedule: Q01DX005 (ip), vehicle: saline",101 % of control
same,T/C,"dose: 100.0 mg/kg/injection, schedule: Q01DX009 (ip), vehicle: saline",188 % of control
CCO/C=C1\SC(=S)N(CCc2ccc(OC)c(OC)c2)C1=O,T/C,[11],94 % of control
same,T/C,[1],102 % of control
same,T/C,[12],93 % of control
same,T/C,[2],102 % of control
same,T/C,[13],103 % of control
same,T/C,[3],102 % of control
Nc1nc(N)c2cc(N3CCCC3c3ccc(Cl)c(Cl)c3)ccc2n1 (configuration not stated),T/C,"dose: 1.56 mg/kg/injection, schedule: Q01DX009 (ip), vehicle: water",103 % of control
same,T/C,"dose: 3.12 mg/kg/injection, schedule: Q01DX009 (ip), vehicle: water",110 % of control
same,T/C,"dose: 6.25 mg/kg/injection, schedule: Q01DX009 (ip), vehicle: water",98 % of control
